Publication PMC9127750, “Structure-based design of CDC42 effector interaction inhibitors for the treatment of cancer” (Cell reports, 2022)
“And” between values parts separate entries of the source, which are not always exact repeats. Identical values can stand only once.

System: WM3248 melanoma cells, 486 antibodies
Assay: Reverse phase protein arrays (RPPA)
Assay type: cell-based, Human
Conditions: normalized to 0
From the text: Pellets were snap frozen in liquid nitrogen and shipped to MD Anderson Cancer Center core RPPA facility for RPPA analysis (Table S5). Three biological replicates for each sample were generated.
Nomenclatures on the RPPA heatmaps: name_of_antibody.species_of_antibody.status_of_antibody. V - antibody validated; C - validation of antibody in progress; Q - antibody nonspecific; E – under evaluation; antibodies raised in M - mouse, G - goat, R - rabbit, or T - rat.

Structure (SMILES): CN(C)c1cccc(Nc2cc(-c3ccccc3)nc(C3CCNCC3)n2)c1 [ARN22089, N1,N1-dimethyl-N3-(6-phenyl-2-(piperidin-4-yl)pyrimidin-4-yl)benzene-1,3-diamine]
- EMA.M.C Norm_5 Average (5, average): 0.850
- ENY2.M.C Norm_5 Average (5, average): 0.965
- ER.a.R.V Norm_5 Average (5, average): 1.001
- ERCC1.R.C Norm_5 Average (5, average): 0.948
- ERCC5.R.C Norm_5 Average (5, average): 1.084
- ERRalpha.R.V Norm_5 Average (5, average): 0.950
- EVI1.R.V Norm_5 Average (5, average): 0.922
- Elk1_pS383.R.C Norm_5 Average (5, average): 1.032
- Enolase.1.R.V Norm_5 Average (5, average): 1.052
- Enolase.2.R.V Norm_5 Average (5, average): 0.966
- EphA2.R.V Norm_5 Average (5, average): 0.884
- EphA2_pS897.R.C Norm_5 Average (5, average): 0.843
- EphA2_pY588.R.C Norm_5 Average (5, average): 0.929
- Erk5.R.V Norm_5 Average (5, average): 1.026
- FABP5.R.C Norm_5 Average (5, average): 0.959
- FAK.R.C Norm_5 Average (5, average): 0.977
- FAK_pY397.R.V Norm_5 Average (5, average): 0.931
- FANCD2.R.V Norm_5 Average (5, average): 0.930
- FASN.R.V Norm_5 Average (5, average): 1.111
- FGF.basic.R.C Norm_5 Average (5, average): 0.987
- FN14.R.C Norm_5 Average (5, average): 1.118
- FOXM1.R.V Norm_5 Average (5, average): 0.915
- FOXO3.R.V Norm_5 Average (5, average): 1.012
- FRS2.alpha_pY196.R.V Norm_5 Average (5, average): 0.996
- FTO.R.V Norm_5 Average (5, average): 1.020
- Fibronectin.R.V Norm_5 Average (5, average): 1.193
- FoxO3a_pS318_S321.R.C Norm_5 Average (5, average): 0.972
- G6PD.R.V Norm_5 Average (5, average): 0.950
- GATA3.M.V Norm_5 Average (5, average): 1.077
- GATA6.R.V Norm_5 Average (5, average): 0.971
- GCLM.R.V Norm_5 Average (5, average): 0.967
- GCN5L2.R.V Norm_5 Average (5, average): 1.021
- GGPS1.M.V Norm_5 Average (5, average): 0.977
- GRB2.R.V Norm_5 Average (5, average): 1.022
- GRB7.R.V Norm_5 Average (5, average): 0.976
- GSK.3a.b.M.V Norm_5 Average (5, average): 0.937
- GSK.3a.b_pS21_S9.R.V Norm_5 Average (5, average): 1.111
- Gab2.R.V Norm_5 Average (5, average): 1.100
- Gli1.R.C Norm_5 Average (5, average): 0.999
- Gli3.R.C Norm_5 Average (5, average): 1.056
- Glucocorticoid.Receptor.R.V Norm_5 Average (5, average): 1.053
- Glutamate.D1.2.R.V Norm_5 Average (5, average): 0.990
- Grp75.R.C Norm_5 Average (5, average): 1.021
- Gys.R.V Norm_5 Average (5, average): 0.987
- Gys_pS641.R.V Norm_5 Average (5, average): 0.978
- H2AX_pS139.R.C Norm_5 Average (5, average): 1.026
- H2AX_pS140.M.C Norm_5 Average (5, average): 0.967
- HER2.M.V Norm_5 Average (5, average): 0.971
- HER2_pY1248.R.V Norm_5 Average (5, average): 1.023
- HER3.R.V Norm_5 Average (5, average): 0.924
- HER3_pY1289.R.C Norm_5 Average (5, average): 1.060
- HES1.R.V Norm_5 Average (5, average): 1.168
- eEF2.R.C Norm_5 Average (5, average): 1.217
- eEF2K.R.V Norm_5 Average (5, average): 1.024
- eIF4E.R.V Norm_5 Average (5, average): 1.028
- eIF4E_pS209.R.V Norm_5 Average (5, average): 0.945
- DNMT1.R.V Norm_5 (5, replicates 1-3): 0.988 and 0.998 and 1.098
- DRP1.R.V Norm_5 (5, replicates 1-3): 0.998 and 1.001
- DUSP4.R.V Norm_5 (5, replicates 1-3): 1.082 and 1.118 and 1.119
- DUSP6.R.C Norm_5 (5, replicates 1-3): 1.285 and 1.005 and 1.269
- DYRK1B.R.C Norm_5 (5, replicates 1-3): 0.880 and 0.877 and 1.004
- Dvl3.R.V Norm_5 (5, replicates 1-3): 0.981 and 1.018 and 0.968
- E2F1.R.V Norm_5 (5, replicates 1-3): 0.990 and 0.958 and 0.964
- E.Cadherin.R.V Norm_5 (5, replicates 1-3): 0.812 and 0.783 and 0.958
- EGFR.R.V Norm_5 (5, replicates 1-3): 0.998 and 1.139 and 0.952
- EGFR_pY1068.R.C Norm_5 (5, replicates 1-3): 0.901 and 0.903 and 1.000
- EGFR_pY1173.R.V Norm_5 (5, replicates 1-3): 1.024 and 1.026 and 1.016
- EMA.M.C Norm_5 (5, replicates 1-3): 0.673 and 0.895 and 0.983
- ENY2.M.C Norm_5 (5, replicates 1-3): 0.935 and 1.052 and 0.908
- ER.a.R.V Norm_5 (5, replicates 1-3): 0.980 and 1.004 and 1.018
- ER.a_pS118.R.V Norm_5 (5, replicates 1-3): 1.247
- ERCC1.R.C Norm_5 (5, replicates 1-3): 0.895 and 0.962 and 0.988
- ERCC5.R.C Norm_5 (5, replicates 1-3): 1.145
- ERRalpha.R.V Norm_5 (5, replicates 1-3): 0.932 and 0.933 and 0.985
- EVI1.R.V Norm_5 (5, replicates 1-3): 0.871 and 0.956 and 0.940
- Elk1_pS383.R.C Norm_5 (5, replicates 1-3): 1.029
- Enolase.1.R.V Norm_5 (5, replicates 1-3): 1.006 and 1.195 and 0.954
- Enolase.2.R.V Norm_5 (5, replicates 1-3): 0.936 and 1.012
- EphA2.R.V Norm_5 (5, replicates 1-3): 0.843 and 0.933 and 0.875
- EphA2_pS897.R.C Norm_5 (5, replicates 1-3): 0.767 and 0.950 and 0.814
- EphA2_pY588.R.C Norm_5 (5, replicates 1-3): 0.881 and 0.946 and 0.960
- Erk5.R.V Norm_5 (5, replicates 1-3): 0.987 and 1.054
- Ets.1.R.V Norm_5 (5, replicates 1-3): 1.139 and 1.226 and 0.851
- FABP5.R.C Norm_5 (5, replicates 1-3): 1.017 and 1.210 and 0.650
- FAK.R.C Norm_5 (5, replicates 1-3): 0.898 and 1.113 and 0.922
- FAK_pY397.R.V Norm_5 (5, replicates 1-3): 0.881 and 0.907 and 1.006
- FANCD2.R.V Norm_5 (5, replicates 1-3): 0.905 and 0.913 and 0.972
- FASN.R.V Norm_5 (5, replicates 1-3): 1.237 and 1.011 and 1.085
- FGF.basic.R.C Norm_5 (5, replicates 1-3): 0.849
- FN14.R.C Norm_5 (5, replicates 1-3): 1.117 and 1.165
- FOXM1.R.V Norm_5 (5, replicates 1-3): 0.776 and 0.924 and 1.046
- FOXO3.R.V Norm_5 (5, replicates 1-3): 0.964 and 1.056 and 1.017
- FRS2.alpha_pY196.R.V Norm_5 (5, replicates 1-3): 0.883 and 1.011
- FTO.R.V Norm_5 (5, replicates 1-3): 1.133 and 0.883
- Fibronectin.R.V Norm_5 (5, replicates 1-3): 1.256 and 1.230
- FoxO3a_pS318_S321.R.C Norm_5 (5, replicates 1-3): 0.972 and 1.006
- G6PD.R.V Norm_5 (5, replicates 1-3): 0.921 and 1.016 and 0.913
- GATA3.M.V Norm_5 (5, replicates 1-3): 1.233 and 0.961
- GATA6.R.V Norm_5 (5, replicates 1-3): 0.980 and 0.952 and 0.979
- GCLC.R.C Norm_5 (5, replicates 1-3): 1.128 and 0.940
- GCLM.R.V Norm_5 (5, replicates 1-3): 0.953 and 1.003
- GCN5L2.R.V Norm_5 (5, replicates 1-3): 0.975 and 1.052
- GGPS1.M.V Norm_5 (5, replicates 1-3): 0.942
- GRB2.R.V Norm_5 (5, replicates 1-3): 0.966 and 1.023 and 1.076
- GRB7.R.V Norm_5 (5, replicates 1-3): 1.030 and 0.936 and 0.962
- GSK.3B.R.C Norm_5 (5, replicates 1-3): 0.980 and 1.031 and 1.125
- GSK.3a.b.M.V Norm_5 (5, replicates 1-3): 1.010 and 0.971 and 0.830
- GSK.3a.b_pS21_S9.R.V Norm_5 (5, replicates 1-3): 1.277 and 1.230
- Gab2.R.V Norm_5 (5, replicates 1-3): 1.236 and 1.059 and 1.006
- Gli1.R.C Norm_5 (5, replicates 1-3): 0.936 and 0.961 and 1.099
- Gli3.R.C Norm_5 (5, replicates 1-3): 1.128 and 1.124 and 0.916
- Glucocorticoid.Receptor.R.V Norm_5 (5, replicates 1-3): 1.063 and 1.061 and 1.034
- Glutamate.D1.2.R.V Norm_5 (5, replicates 1-3): 1.128 and 0.932
- Glutaminase.R.C Norm_5 (5, replicates 1-3): 1.249 and 0.891
- Granzyme.B.R.V Norm_5 (5, replicates 1-3): 1.216 and 0.936
- Grp75.R.C Norm_5 (5, replicates 1-3): 0.988 and 1.124 and 0.950
- Gys.R.V Norm_5 (5, replicates 1-3): 0.964 and 0.981 and 1.016
- Gys_pS641.R.V Norm_5 (5, replicates 1-3): 1.014 and 0.854
- H2AX_pS139.R.C Norm_5 (5, replicates 1-3): 1.023 and 1.013
- H2AX_pS140.M.C Norm_5 (5, replicates 1-3): 0.966 and 1.110 and 0.827
- HER2.M.V Norm_5 (5, replicates 1-3): 0.993 and 0.940 and 0.980
- HER2_pY1248.R.V Norm_5 (5, replicates 1-3): 0.876 and 1.016
- HER3.R.V Norm_5 (5, replicates 1-3): 0.898 and 0.946 and 0.928
- HER3_pY1289.R.C Norm_5 (5, replicates 1-3): 1.034 and 1.212 and 0.933
- HES1.R.V Norm_5 (5, replicates 1-3): 1.299 and 1.047 and 1.158
- Heregulin.R.V Norm_5 (5, replicates 1-3): 1.014 and 1.131 and 1.059
- eEF2.R.C Norm_5 (5, replicates 1-3): 1.519 and 1.622 and 0.509
- eEF2K.R.V Norm_5 (5, replicates 1-3): 1.078 and 1.168
- eIF4E.R.V Norm_5 (5, replicates 1-3): 0.986 and 1.010
- eIF4E_pS209.R.V Norm_5 (5, replicates 1-3): 0.988 and 0.981
- eIF4G.R.C Norm_5 (5, replicates 1-3): 1.060 and 1.058 and 1.164
- DNMT1.R.V Norm_10 Average (10, average): 1.056
- DRP1.R.V Norm_10 Average (10, average): 0.998
- DUSP4.R.V Norm_10 Average (10, average): 0.891
- DUSP6.R.C Norm_10 Average (10, average): 1.050
- DYRK1B.R.C Norm_10 Average (10, average): 0.948
- Dvl3.R.V Norm_10 Average (10, average): 0.962
- E2F1.R.V Norm_10 Average (10, average): 1.083
- E.Cadherin.R.V Norm_10 Average (10, average): 0.939
- EGFR.R.V Norm_10 Average (10, average): 0.975
- EGFR_pY1068.R.C Norm_10 Average (10, average): 0.957
- EMA.M.C Norm_10 Average (10, average): 0.953
- ER.a.R.V Norm_10 Average (10, average): 0.921
- ERCC5.R.C Norm_10 Average (10, average): 0.962
- ERRalpha.R.V Norm_10 Average (10, average): 1.014
- EVI1.R.V Norm_10 Average (10, average): 1.011
- Elk1_pS383.R.C Norm_10 Average (10, average): 0.998
- Enolase.1.R.V Norm_10 Average (10, average): 1.160
- EphA2.R.V Norm_10 Average (10, average): 0.919
- EphA2_pS897.R.C Norm_10 Average (10, average): 0.866
- EphA2_pY588.R.C Norm_10 Average (10, average): 0.941
- Erk5.R.V Norm_10 Average (10, average): 0.877
- Ets.1.R.V Norm_10 Average (10, average): 1.306
- FABP5.R.C Norm_10 Average (10, average): 1.237
- FAK.R.C Norm_10 Average (10, average): 0.954
- FANCD2.R.V Norm_10 Average (10, average): 0.930
- FASN.R.V Norm_10 Average (10, average): 0.962
- FGF.basic.R.C Norm_10 Average (10, average): 0.946
- FOXM1.R.V Norm_10 Average (10, average): 0.929
- FOXO3.R.V Norm_10 Average (10, average): 1.081
- FRS2.alpha_pY196.R.V Norm_10 Average (10, average): 1.373
- FTO.R.V Norm_10 Average (10, average): 1.099
- Fibronectin.R.V Norm_10 Average (10, average): 1.015
